Assay results: patent US4696920A, “Certain 2-substituted 1,3-propylidenediphosphonate derivatives, pharmaceutical compositions containing them and their use as antihypertensive agents” (priority 1984, dated 1987)
Read-outs that look alike come from different tables or passages of the source.

Legend:
[1] = test system: calcium channel binding site for [^3 H]-Nitrendipine (rat brain membranes); assay: [^3 H]-Nitrendipine binding to rat brain membranes; parameters: species or system rat (male Wistar); details: for modulation of [^3 H]-Nitrendipine binding (in words) / Specifically bound [^3 H]-Nitrendipine % of control value / Bound ^3 H at 1.0 μM / Bound ^3 H at 0.1 μM: Table 1a; for Specifically bound [^3 H]-Nitrendipine % of control value: compound concentration 1.0 μM; for Bound ^3 H at 1.0 μM / Bound ^3 H at 0.1 μM: ratio of [^3 H]-Nitrendipine bound at 1.0 and 0.1 μM compound
Procedure: Diltiazem hydrochloride was a generous gift from Goedecke A. G.
Suitable dilutions were made in 50 mM Tris-HCl buffer (pH 7.4) containing 150 mM NaCl and 1 mM CaCl2. The ethanol concentration in the final assay never exceeded 0.1%.
The purity of the radioligand and of the various agents tested was monitored by thin layer chromatography on silica gel plates.
The following procedure was adapted from Bellemann et al (Proc. Nat. Acad. Sci. 80, 2356, 1983), and Gould et al (Proc. Nat. Acad. Sci. 79, 3656, 1982).
Adult male Wistar rats weighing 250-300 g were anesthetized with carbon dioxide prior to decapitation. The brain was removed then immersed in ice-cold 0.32M sucrose and washed 2-3 times with fresh solution. Cerebral cortex was minced and homogenized (Potter-Elvehjem homogenizer) in 10 volumes of ice-cold sucrose solution. The homogenate was centrifuged (4° C.) at 1000×g for 15 minutes. The resulting supernatant was then centrifuged at 90000×g (30 minutes) and the pellet was washed twice with 20 ml ice-cold 50 mM Tris-HCl pH 7.4.
The final pellet was resuspended in 50 mM Tris-HCl pH 7.4/150 mM NaCl/1 mM CaCl2 to give a protein concentration of 4 mg/ml.
The membrane suspension was kept on ice until used. Binding assays were performed in subdued light to prevent dihydropyridine breakdown. Membrane protein (400 μg/tube) was incubated in 50 mM Tris-HCl buffer (pH 7.4)/150 mM NaCl/1 mM CaCl2 with the indicated concentrations of radioligand and test compounds or known calcium antagonists, in a total volume of 2 ml. After the indicated time intervals, the reaction was terminated by rapid filtration through Whatman GF/B glass fiber filters (2.4 cm diameter) on a Millipore filter holder. The assay tube was rinsed with 2 ml ice-cold 50 mM Tris-HCl pH (7.4) and the precipitate was further washed with 2×5 ml of the same buffer.
Filters were dried under a heat lamp and were extracted with 10 ml of liquid scintillation cocktail (Toluene/Triton X-100, 2/1 containing 4 g Omnifluor/1) prior to tritium determination at 48% counting efficiency.
Assays were performed in duplicate or triplicate.
Data were expressed as percent specific [^3 H]-Nitrendipine binding relative to the established control value.
Compound activity in the [^3 H]-Nitrendipine binding assay was evaluated by using the following criteria:
1. [^3 H]-Nitrendipine binding at 1.0 μM compound final concentration was either below 95% or above 105% of the control value determined in absence of compound.
2. […] This ratio is indicative of a dose response relationship within the compound concentration range tested, when the value differs appreciably from 1.0.

[2] = test system: rat trachea contraction induced by KCl depolarization; assay: KCl-induced rat trachea contraction; parameters: species or system rat (male SHR, Okamoto-Aoki); details: for activity at 1 µM: Rattus norvegicus, 40 min, read-out: Contraction (% max.)
Procedure: Spontaneously hypertensive male rats (SHR) Okamoto-Aoki Strain, weighing 300-400 g were used in this study. They were killed by bleeding after Pentobarbital anesthesia (Nembutal, Abbott Co, 40 mg/kg). Their entire trachea was quickly removed and dissected free of fat and connective tissue in Krebs-Ringer solution. A strip (4 mm×40 mm), obtained by spirally cutting the trachea, was immediately suspended in a 50 ml Krebs-Ringer solution and continuously bubbled with a O2 /CO2 (95/5) mixture. Bath temperature was maintained at 37±1° C. The composition (mM) of the Krebs-Ringer solution modified by Nghiem, was as follows: NaCl, (118.0); KCl, (4.7); CaCl2, (2.5); MgCl2, (1.18); NaHCO3, (12.5); KH2 P04, (1.18); glucose, (5.5) in bidistilled water (pH 7.4). Each strip was equilibrated under initial tension (1.5-2 g) for 1-2 hours and the bath solution changed every 30 min. A contractile or relaxant response was isometrically measured with a force-displacement transducer (Ugo-Basile) and recorded on a polygraph (Beckman).
After equilibration, KCl was added to the bath at 65 mM final concentration. This concentration produced maximum trachea contraction. Under these conditions, a plateau phase showing a tonic sustained contraction was reached within 30 minutes. Drugs were added 30 minutes after the plateau phase has been reached (final concentration=1.0 μM). […] Recordings of the residual trachea contraction were made 40 minutes after drug addition to the bathing fluid. The initial KCl induced contraction was taken as the maximum KCl response (100%). Results were expressed as % of maximal contraction. Nifedipine, Prenylamine, Flunarizine and Diltiazem were used as reference standards to validate this assay.
All 1,3-diphosphonates and drugs were dissolved in saline (0.9% NaCl) except when water insoluble, then the compounds were dissolved in 2% ethanol. The final concentration of ethanol used has been shown not to interfere with the assay.
Results are expressed as mean values±SEM, the Student's t-test was used for statistical analysis.

[3] = final concentration 1.0 μM, 65 mM KCl, 40 minutes after drug addition, mean ± SEM

| % [^3 H]-Nitrendipine bound ([1]; reference standards at 1 μM) | SMILES | modulation of [^3 H]-Nitrendipine binding (in words) [1] | Specifically bound [^3 H]-Nitrendipine % of control value [1] | Bound ^3 H at 1.0 μM / Bound ^3 H at 0.1 μM [1] | activity at 1 µM [2, 3] | activity at 1 µM [2] | activity on KCl-induced trachea contraction (in words) ([2]; final concentration 1.0 μM) |
| --- | --- | --- | --- | --- | --- | --- | --- |
| – | CCCCCCOP(=O)(CC(CCCc1ccccc1)CP(=O)(OCCCCCC)OCCCCCC)OCCCCCC [Compound 113, Tetrahexyl 2-(3-phenylpropyl)-1,3-propylidenediphosphonate] | strong inhibitors | 20 % of control value | 0.621 | 90 ± 1.5% | – | – |
| – | CCCCOP(=O)(CC(CP(=O)(OCCCC)OCCCC)C(c1ccccc1)c1ccccc1)OCCCC [Compound 85] | – | 112 % of control value | 1.082 | – | 96.2 ± 0.8% | – |
| – | CCCCCOP(=O)(CC(CCCc1ccccc1)CP(=O)(OCC)OCCCCC)OCC (stereo not drawn) [Compound 117, Bis(ethyl, pentyl) 2-(3-phenylpropyl)-1,3-propylidenediphosphonate] | strong inhibitors | 79 % of control value | 0.950 | – | 60 ± 4% | potent pharmacological activity |
| – | O=P(O)(O)CC(CCCc1ccccc1)CP(=O)(O)O [Compound 4] | – | 99 % of control value | 0.957 | – | – | – |
| – | CCCCOP(=O)(CC(CP(=O)(OCCCC)OCCCC)c1ccccn1)OCCCC [Compound 86] | – | 98 % of control value | 1.052 | – | 89 ± 2% | – |
| – | CCCCOP(=O)(CC(Cc1ccncc1)CP(=O)(OCCCC)OCCCC)OCCCC [Compound 87] | – | 93 % of control value | 0.967 | – | 71.9 ± 1.9% | potent pharmacological activity |
| – | O=P(O)(O)CC(Cc1ccc(Cl)cc1)CP(=O)(O)O [Compound 5] | – | 99 % of control value | 1.003 | – | – | – |
| – | COP(=O)(CC(Cc1ccccc1)CP(=O)(OC)OC)OC [Compound 10, Tetramethyl 2-benzyl-1,3-propylidenediphosphonate] | – | 92 % of control value | 0.983 | – | 91% | – |
| – | CCCCCC(CP(=O)(OCCCC)OCCCC)CP(=O)(OCCCC)OCCCC [Compound 66] | strong inhibitors | 26 % of control value | 0.387 | – | 88.5 ± 0.5% | – |
| – | CCOP(=O)(CC(CP(=O)(OCC)OCC)C(c1ccccc1)c1ccccc1)OCC [Compound 39] | – | 110 % of control value | 1.220 | – | 96 ± 4.9% | – |
| – | CCOP(=O)(CC(CP(=O)(OCC)OCC)c1ccccn1)OCC [Compound 40] | – | 100 % of control value | 0.978 | – | 61.2 ± 4.6% | potent pharmacological activity |
| – | COP(=O)(CC(CCc1ccccc1)CP(=O)(OC)OC)OC [Compound 11] | – | 96 % of control value | 1.024 | – | – | – |
| – | O=P(O)(O)CC(Cc1ccccc1)CP(=O)(O)O [Compound 2, 2-Benzyl-1,3-propylidenediphosphonic acid] | – | 98 % of control value | 1.002 | – | – | – |
| – | CCCCOP(=O)(CC(CCCC1CCCCC1)CP(=O)(OCCCC)OCCCC)OCCCC [Compound 68, Tetrabutyl 2-(3-Cyclohexylpropyl)-1,3-propylidenediphosphonate] | strong inhibitors | 0 % of control value | 0.000 | – | 100 ± 4% | – |
| – | CC(C)COP(=O)(CC(CCCc1ccccc1)CP(=O)(OCC(C)C)OCC(C)C)OCC(C)C [Compound 111] | – | 57 % of control value | 0.809 | 100 ± 1.5% | – | – |
| – | CCOP(=O)(CC(Cc1ccc(-c2ccccc2)cc1)CP(=O)(OCC)OCC)OCC [Compound 38] | strong inhibitors | 60 % of control value | 0.721 | – | 84 ± 2.4% | potent pharmacological activity |
| – | CCCCOP(=O)(CC(CCCc1cccnc1)CP(=O)(OCCCC)OCCCC)OCCCC [Compound 88] | strong inhibitors | 69 % of control value | 0.760 | – | 56.3 ± 5.9% | potent pharmacological activity |
| – | CC(C)OP(=O)(CC(CCCc1ccccc1)CP(=O)(OC(C)C)OC(C)C)OC(C)C [Compound 56] | activators | 115 % of control value | 1.115 | – | 100% | – |
| – | CCOP(=O)(CC(Cc1cccc2ccccc12)CP(=O)(OCC)OCC)OCC [Compound 37] | – | 104 % of control value | 1.011 | – | 53.8 ± 0.4% | potent pharmacological activity |
| – | O=P(O)(O)CC(CCc1ccccc1)CP(=O)(O)O [Compound 3] | – | 94 % of control value | 0.955 | – | – | – |
| – | CCCCOP(=O)(CC(Cc1ccc(-c2ccccc2)cc1)CP(=O)(OCCCC)OCCCC)OCCCC [Compound 84] | – | 80 % of control value | 0.886 | – | 98.5 ± 2.5% | – |
| 95% | CCN(CC)CCCCCCCCOC(=O)c1cc(OC)c(OC)c(OC)c1 [TMB-8, reference compound] | – | – | – | – | – | – |
| – | CCCCCOP(=O)(CC(CCCc1ccccc1)CP(=O)(OCCCCC)OCCCCC)OCCCCC [Compound 112, Tetrapentyl 2-(3-phenylpropyl)-1,3-propylidenediphosphonate] | – | 0 % of control value | 0.645 | 84 ± 3% | – | – |
